Measured values from patent US20250222005A1, “METHYLENE BLUE CONTAINING COMPOUNDS FOR THE TREATMENT OF METHAEMOGLOBINAEMIA” (Wis Ta Laboratories Ltd., priority 2022, published 2025).
One block for each compound: values may come before it.

Legend:
[1] = tested on: patients with mild hypoxaemia; assay: Peripheral oxygen saturation (SpO2) by pulse oximetry in AD trial patients with baseline SpO2 below 94% receiving oral LMTM; type: in vivo, human; conditions: for Oxygen saturation, mean %: Baseline (1 hr) 92.167; for Difference in oxygen saturation with respect to baseline: pooled doses; for Oxygen saturation, mean %, post dose: 4 hours post-dose; for Change in mean SpO2 from baseline: four hours
Experimental: (§1) Methods: Eighteen AD trial participants randomised to unit 4/75/100/125 mg doses of LMTM had SPO2 levels below 94% at baseline. Patients were routinely monitored by pulse oximetry after 4 hrs, and after 2 and 6 weeks of twice daily dosing. Computational chemistry was used to understand LMT-heme binding. The study design and results from two Phase 3, double-blind, controlled, randomised, studies of LMTM as a potential treatment for AD were described elsewhere (see “Gauthier, S., et al. “Efficacy and safety of tau-aggregation inhibitor therapy in patients with mild or moderate Alzheimer's disease: a randomised, controlled, double-blind, parallel-arm, phase 3 trial.” Lancet 2016; 388:2873-2884.” and “Wilcock, G K, et al. “Potential of low dose leuco-methylthioninium bis(hydromethanesulphonate) (LMTM) monotherapy for treatment of mild Alzheimer's disease: cohort analysis as modified primary outcome in a Phase Ill clinical trial.” Journal of Alzheimer's Disease 2017; 61:435-457.). In summary, 890 mild/moderate AD patients were randomly assigned (3:3:4) to 150 mg/day, 250 mg/day or 8 mg/day (intended as a control) for 15-months (clinicaltrials.gov NCT01689246). Similarly, 800 patients with mild AD were randomly assigned to 200 mg/day or 8 mg/day LMTM for 18-months (clinicaltrials.gov NCT01689233). In both trials, MetHb and SpO2 levels were measured by pulse oximetery (Massimo Corporation rad 57) at screening, baseline (within 1 hour prior to dosing), post-dose during the 4-hour observation, and subsequent clinic visits at 2 and 6 weeks. Statistical analyses were performed using R-version 3.5.1, employing paired samples t-tests to compare mean SpO2 and metHb levels.

[2] = tested on: methaemoglobin; assay: Methaemoglobin (metHb) levels by pulse oximetry in AD trial patients receiving oral LMTM; type: in vivo, human; conditions: for Methaemoglobin, mean % ± SE: Table 5B, all patients; for Methaemoglobin, mean %: Table 5A, patients with SpO2 <94% at baseline; for Methaemoglobin, mean %, post dose: 4 hours post-dose, baseline SpO2 <94%
Experimental: as §1

[3] = tested on: oxygen-haemoglobin dissociation curve; assay: Estimation of effect of LMT treatment on oxygen-haemoglobin dissociation curve (SpO2 to PaO2 conversion table); set-up: species or system human; conditions: patients with mild hypoxaemia treated with LMTM; SpO2 plotted at baseline-implied PaO2
[4] = target: heme iron of haemoglobin (Homo sapiens, UniProt P68871+P69905); conditions: from crystal field theory (Jorgensen); cited from earlier work
Sequence of heme iron of haemoglobin (P69905 2-142 limits assumed): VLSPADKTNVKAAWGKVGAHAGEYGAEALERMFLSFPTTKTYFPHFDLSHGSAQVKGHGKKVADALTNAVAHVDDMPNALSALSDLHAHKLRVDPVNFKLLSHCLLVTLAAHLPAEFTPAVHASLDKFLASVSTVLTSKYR
Sequence of heme iron of haemoglobin (P68871 2-147 limits assumed): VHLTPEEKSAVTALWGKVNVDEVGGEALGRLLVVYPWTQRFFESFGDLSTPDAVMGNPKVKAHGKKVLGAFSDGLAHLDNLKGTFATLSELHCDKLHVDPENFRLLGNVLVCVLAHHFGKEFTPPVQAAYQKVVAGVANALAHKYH

Methaemoglobin, mean % ± SE ([2]; 8 mg (per day), 4 hr, baseline 0.709 ± 0.017, p 0.09732): 0.732 ± 0.017%
Methaemoglobin, mean % ± SE ([2]; 8 mg (per day), Week 2, baseline 0.709 ± 0.017, p 0.1326): 0.733 ± 0.018%
Methaemoglobin, mean % ± SE ([2]; 8 mg (per day), Week 6, baseline 0.709 ± 0.017, p 0.0006916): 0.770 ± 0.019%
Methaemoglobin, mean % ± SE ([2]; 150 mg (per day), 4 hr, baseline 0.721 ± 0.029, p 0.02212): 0.7811 ± 0.029%
Methaemoglobin, mean % ± SE ([2]; 150 mg (per day), Week 2, baseline 0.721 ± 0.029, p <0.0001): 0.831 ± 0.032%
Methaemoglobin, mean % ± SE ([2]; 150 mg (per day), Week 6, baseline 0.721 ± 0.029, p <0.0001): 0.889 ± 0.034%
Methaemoglobin, mean % ± SE ([2]; 200 mg (per day), 4 hr, baseline 0.702 ± 0.025, p 0.01967): 0.760 ± 0.023%
Methaemoglobin, mean % ± SE ([2]; 200 mg (per day), Week 2, baseline 0.702 ± 0.025, p <0.0001): 0.849 ± 0.027%
Methaemoglobin, mean % ± SE ([2]; 200 mg (per day), Week 6, baseline 0.702 ± 0.025, p <0.0001): 0.873 ± 0.030%
Methaemoglobin, mean % ± SE ([2]; 250 mg (per day), 4 hr, baseline 0.696 ± 0.028, p 0.005868): 0.758 ± 0.028%
Methaemoglobin, mean % ± SE ([2]; 250 mg (per day), Week 2, baseline 0.696 ± 0.028, p <0.0001): 0.837 ± 0.034%
Methaemoglobin, mean % ± SE ([2]; 250 mg (per day), Week 6, baseline 0.696 ± 0.028, p <0.0001): 0.851 ± 0.033%
Difference in metHb levels between baseline and 4-hours post-dose ([2]; both treatment groups (4 mg and high single doses), patients with baseline SpO2 <94%): no consistent difference
Effect on metHb levels over 6 weeks ([2]; higher doses (150, 200 and 250 mg/day), baseline SpO2 <94% subgroup, not statistically significant): systematically increased
SMILES: CN(C)c1ccc2c(c1)Sc1cc(N(C)C)ccc1N2 [LMTM, leuco-methylthioninium bis(hydromethanesulfonate)]
Enhancement of oxygen saturation ([1]; patients with chronic hypoxaemia, single doses 4-125 mg and 6 weeks twice daily): about 3%
Oxygen saturation, mean % ([1]; pooled data all doses (8 mg/day and 150-250 mg/day), Week 2): 95.400%
Oxygen saturation, mean % ([1]; pooled data all doses (8 mg/day and 150-250 mg/day), Week 6): 95.571%
Oxygen saturation, mean % ([1]; pooled data all doses, Baseline (4 hr)): 95.333%
Difference in oxygen saturation with respect to baseline ([1]; week 2, p=0.0034): +3.17%
Difference in oxygen saturation with respect to baseline ([1]; week 6, p=0.0005): +3.23%
Oxygen saturation, mean %, post dose ([1]; single 4 mg dose, patients with baseline SpO2 <94%, pre-dose 91.71): 95.43%
Change in mean SpO2 from baseline ([1]; single 4 mg dose, p=0.0205): +3.72%
Change in mean SpO2 from baseline ([1]; single high dose (75, 100 or 125 mg), p=0.0045): +2.82%
Oxygen saturation, mean %, post dose ([1]; single high dose (75/100/125 mg indicated as 100 mg), baseline SpO2 <94%, pre-dose 92.45): 95.27%
Implied effect of treatment on the oxygen-haemoglobin dissociation curve [3]: implied left-shift

Methaemoglobin, mean % ([2]; LMT dose 4 mg, 4 hr, baseline 0.709): 0.733%
Methaemoglobin, mean % ([2]; LMT dose 4 mg, Week 2, baseline 0.709): 0.732%
Methaemoglobin, mean % ([2]; LMT dose 4 mg, Week 6, baseline 0.709): 0.769%
Methaemoglobin, mean % ([2]; LMT dose 150 mg, 4 hr, baseline 0.721): 0.781%
Methaemoglobin, mean % ([2]; LMT dose 150 mg, Week 2, baseline 0.721): 0.835%
Methaemoglobin, mean % ([2]; LMT dose 150 mg, Week 6, baseline 0.721): 0.888%
Methaemoglobin, mean % ([2]; LMT dose 200 mg, 4 hr, baseline 0.702): 0.760%
Methaemoglobin, mean % ([2]; LMT dose 200 mg, Week 2, baseline 0.702): 0.849%
Methaemoglobin, mean % ([2]; LMT dose 200 mg, Week 6, baseline 0.702): 0.873%
Methaemoglobin, mean % ([2]; LMT dose 250 mg, 4 hr, baseline 0.696): 0.758%
Methaemoglobin, mean % ([2]; LMT dose 250 mg, Week 2, baseline 0.696): 0.845%
Methaemoglobin, mean % ([2]; LMT dose 250 mg, Week 6, baseline 0.696): 0.858%
Methaemoglobin, mean %, post dose ([2]; single 4 mg dose, pre-dose 0.70): 0.87%
Methaemoglobin, mean %, post dose ([2]; single high dose (indicated as 100 mg), pre-dose 0.90): 0.65%
SMILES: CN(C)c1ccc2c(c1)Sc1cc(N(C)C)ccc1N2 [LMT, hydromethylthionine]
Estimated field factor of the LMT-heme interaction [4]: 1.2-1.5
